# From ChEMBL document CHEMBL1132682, “High affinity retinoic acid receptor antagonists: analogs of AGN 193109” (Bioorg Med Chem Lett, 1999)
# Columns and labels:
# [1] = target: T1, Retinoic acid receptor alpha (Homo sapiens, UniProt P10276); assay: Ability to displace 3[H](all-E)-retinoic acid (5 nM) from alpha retinoic acid receptor (alpha RAR) using transactivation assay
# T1 sequence (P10276 whole entry): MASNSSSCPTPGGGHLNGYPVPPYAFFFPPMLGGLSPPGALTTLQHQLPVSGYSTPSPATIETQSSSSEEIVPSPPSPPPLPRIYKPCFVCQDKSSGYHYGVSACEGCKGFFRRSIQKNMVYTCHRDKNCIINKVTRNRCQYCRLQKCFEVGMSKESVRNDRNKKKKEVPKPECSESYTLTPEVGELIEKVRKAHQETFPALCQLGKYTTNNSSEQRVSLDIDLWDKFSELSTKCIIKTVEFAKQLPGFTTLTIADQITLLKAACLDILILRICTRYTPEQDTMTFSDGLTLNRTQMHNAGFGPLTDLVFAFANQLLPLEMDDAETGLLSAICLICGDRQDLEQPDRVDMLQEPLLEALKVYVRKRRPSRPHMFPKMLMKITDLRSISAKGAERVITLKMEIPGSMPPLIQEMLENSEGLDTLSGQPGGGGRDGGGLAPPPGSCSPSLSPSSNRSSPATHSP
# [2] = target: T2, Retinoic acid receptor gamma (Homo sapiens, UniProt P13631); assay: Ability to displace 3[H](all-E)-retinoic acid (5 nM) from Retinoic acid receptor gamma using transactivation assay
# T2 sequence (P13631 whole entry): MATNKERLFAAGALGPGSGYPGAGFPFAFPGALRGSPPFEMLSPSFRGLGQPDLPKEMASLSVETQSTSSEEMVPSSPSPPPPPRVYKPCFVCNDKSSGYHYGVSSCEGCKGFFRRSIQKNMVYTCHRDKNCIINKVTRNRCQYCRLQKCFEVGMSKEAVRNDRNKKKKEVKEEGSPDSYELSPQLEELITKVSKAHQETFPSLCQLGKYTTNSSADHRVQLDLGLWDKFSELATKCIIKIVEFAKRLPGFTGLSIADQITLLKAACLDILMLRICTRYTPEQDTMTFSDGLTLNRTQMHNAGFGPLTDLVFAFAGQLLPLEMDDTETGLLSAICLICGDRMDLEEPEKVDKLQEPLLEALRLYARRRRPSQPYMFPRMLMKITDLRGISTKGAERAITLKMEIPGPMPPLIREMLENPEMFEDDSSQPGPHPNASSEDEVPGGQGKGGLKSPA
# [3] = target: T3, Retinoic acid receptor beta (Homo sapiens, UniProt P10826); assay: Ability to displace 3[H](all-E)-retinoic acid (5 nM) from beta retinoic acid receptor (beta RAR) using transactivation assay
# T3 sequence (P10826 whole entry): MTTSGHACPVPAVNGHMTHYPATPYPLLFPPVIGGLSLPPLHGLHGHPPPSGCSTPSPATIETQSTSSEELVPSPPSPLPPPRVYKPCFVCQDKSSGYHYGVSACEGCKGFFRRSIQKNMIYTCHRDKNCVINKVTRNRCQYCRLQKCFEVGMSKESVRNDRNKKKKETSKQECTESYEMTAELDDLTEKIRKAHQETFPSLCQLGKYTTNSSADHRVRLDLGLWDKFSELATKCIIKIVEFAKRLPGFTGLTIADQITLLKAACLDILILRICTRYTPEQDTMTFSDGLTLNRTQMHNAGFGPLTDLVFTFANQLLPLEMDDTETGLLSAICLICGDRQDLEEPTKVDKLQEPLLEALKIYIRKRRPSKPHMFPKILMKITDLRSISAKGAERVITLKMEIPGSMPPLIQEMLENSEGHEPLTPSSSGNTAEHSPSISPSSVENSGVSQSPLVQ
smiles,measurement,setting,value
CC1(C)CC=C(c2ccc(O)cc2)c2cc(C#Cc3ccc(C(=O)O)cc3)ccc21,Kd,[1],229 nM
same,Kd,[2],98 nM
same,Kd,[3],72 nM
Cc1cccc(C2=CCC(C)(C)c3ccc(C#Cc4ccc(C(=O)O)cc4)cc32)c1,Kd,[1],276 nM
same,Kd,[2],67 nM
same,Kd,[3],51 nM
Cc1cc(C)cc(C2=CCC(C)(C)c3ccc(C#Cc4ccc(C(=O)O)cc4)cc32)c1,Kd,[1],1050 nM
same,Kd,[2],408 nM
same,Kd,[3],274 nM
CC(C)c1ccc(C2=CCC(C)(C)c3ccc(C#Cc4ccc(C(=O)O)cc4)cc32)cc1,Kd,[1],90 nM
same,Kd,[2],171 nM
same,Kd,[3],11 nM
CCc1ccc(C2=CCC(C)(C)c3ccc(C#Cc4ccc(C(=O)O)cc4)cc32)cc1,Kd,[1],40 nM
same,Kd,[2],19 nM
same,Kd,[3],10 nM
CC1(C)CC=C(c2ccccc2)c2cc(C#Cc3ccc(C(=O)O)cc3)ccc21,Kd,[1],147 nM
same,Kd,[2],42 nM
same,Kd,[3],33 nM
Cc1ccccc1C1=CCC(C)(C)c2ccc(C#Cc3ccc(C(=O)O)cc3)cc21,Kd,[1],103 nM
same,Kd,[2],35 nM
same,Kd,[3],29 nM
CC1(C)CC=C(c2ccc(C(F)(F)F)cc2)c2cc(C#Cc3ccc(C(=O)O)cc3)ccc21,Kd,[1],44 nM
same,Kd,[2],57 nM
same,Kd,[3],29 nM
CC1(C)CC=C(c2ccc(Cl)cc2)c2cc(C#Cc3ccc(C(=O)O)cc3)ccc21,Kd,[1],58 nM
same,Kd,[2],27 nM
same,Kd,[3],18 nM
CC1(C)CC=C(c2ccc(F)cc2)c2cc(C#Cc3ccc(C(=O)O)cc3)ccc21,Kd,[1],85 nM
same,Kd,[2],82 nM
same,Kd,[3],52 nM
COc1ccc(C2=CCC(C)(C)c3ccc(C#Cc4ccc(C(=O)O)cc4)cc32)cc1,Kd,[1],60 nM
same,Kd,[2],36 nM
same,Kd,[3],16 nM
CC1(C)CC=C(c2cccc(O)c2)c2cc(C#Cc3ccc(C(=O)O)cc3)ccc21,Kd,[1],919 nM
same,Kd,[2],254 nM
same,Kd,[3],162 nM
CC1(C)CC=C(c2ccc(C#N)cc2)c2cc(C#Cc3ccc(C(=O)O)cc3)ccc21,Kd,[1],38 nM
same,Kd,[2],51 nM
same,Kd,[3],14 nM
Cc1ccc(C2=CCC(C)(C)c3ccc(C#Cc4ccc(C(=O)O)cc4)cc32)cc1,Kd,[1],16 nM
same,Kd,[2],7 nM
same,Kd,[3],7 nM
CC(C)(C)c1ccc(C2=CCC(C)(C)c3ccc(C#Cc4ccc(C(=O)O)cc4)cc32)cc1,Kd,[1],178 nM
same,Kd,[2],94 nM
same,Kd,[3],21 nM
